In one data set the test system is SNU-16 cells. The experiment in a line: Cell counting assay (trypan blue). Format: cell-based. The following applies: SNU-16, 10 and 100 nM, 9 days. The procedure: (§1) SNU-16 and KATO III were seeded in 6-well plated with 1×10^5 per well. RK-019 was treated as soon as the cells seeded in the 6-well plates. After indicated time, the images were captured using an inverted microscope. Then, the cells in the captured well were resuspended and live cell numbers were determined by the trypan blue (BL627A, Biosharp, Hefei, China) method.

Another data set relates to KATO III cells. The experiment in a line: Cell counting assay (trypan blue). Format: cell-based. The following applies: KATO III, 5, 10, and 100 nM, 9 days. The procedure:
as §1

In the next data set the target is T1, PKCθ(h) (Homo sapiens, UniProt Q04759).
T1 construct: purchased Eurofins Discovery Services (KinaseProfiler)
T1 sequence (Q04759 whole entry): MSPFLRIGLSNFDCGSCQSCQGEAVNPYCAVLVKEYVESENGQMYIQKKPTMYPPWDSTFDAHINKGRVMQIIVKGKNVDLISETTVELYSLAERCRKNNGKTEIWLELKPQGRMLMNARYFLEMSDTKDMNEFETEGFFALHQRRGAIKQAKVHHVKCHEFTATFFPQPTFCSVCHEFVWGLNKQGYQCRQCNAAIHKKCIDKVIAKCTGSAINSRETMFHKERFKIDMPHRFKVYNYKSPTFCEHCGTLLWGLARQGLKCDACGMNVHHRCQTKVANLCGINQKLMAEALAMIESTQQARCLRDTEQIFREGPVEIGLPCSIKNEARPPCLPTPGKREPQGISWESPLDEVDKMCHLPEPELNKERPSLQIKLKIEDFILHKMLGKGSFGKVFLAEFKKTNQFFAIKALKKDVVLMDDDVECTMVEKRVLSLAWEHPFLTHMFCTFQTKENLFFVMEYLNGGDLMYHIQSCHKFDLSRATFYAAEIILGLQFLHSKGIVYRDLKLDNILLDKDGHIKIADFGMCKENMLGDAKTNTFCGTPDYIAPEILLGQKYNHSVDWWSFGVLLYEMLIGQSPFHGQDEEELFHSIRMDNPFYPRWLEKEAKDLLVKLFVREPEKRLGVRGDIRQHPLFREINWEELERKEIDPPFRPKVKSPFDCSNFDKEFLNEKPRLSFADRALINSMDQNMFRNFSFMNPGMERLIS
Nature of the data set: Kinase selectivity panel. The data set is classed as biochemical. The following applies: read-out: Inhibition(%) @ 1 µM RK-019. An outline of the steps:
(§2)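 The compound is tested at a fixed 1 µM in an in vitro binding assay based on competition at the ATP site of recombinant human kinase. Inhibition ratio is reported.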

The target of the next data set is T2, AMPKα1(h) (Homo sapiens, UniProt Q13131).
T2 construct: purchased Eurofins Discovery Services (KinaseProfiler)
T2 sequence (Q13131 whole entry): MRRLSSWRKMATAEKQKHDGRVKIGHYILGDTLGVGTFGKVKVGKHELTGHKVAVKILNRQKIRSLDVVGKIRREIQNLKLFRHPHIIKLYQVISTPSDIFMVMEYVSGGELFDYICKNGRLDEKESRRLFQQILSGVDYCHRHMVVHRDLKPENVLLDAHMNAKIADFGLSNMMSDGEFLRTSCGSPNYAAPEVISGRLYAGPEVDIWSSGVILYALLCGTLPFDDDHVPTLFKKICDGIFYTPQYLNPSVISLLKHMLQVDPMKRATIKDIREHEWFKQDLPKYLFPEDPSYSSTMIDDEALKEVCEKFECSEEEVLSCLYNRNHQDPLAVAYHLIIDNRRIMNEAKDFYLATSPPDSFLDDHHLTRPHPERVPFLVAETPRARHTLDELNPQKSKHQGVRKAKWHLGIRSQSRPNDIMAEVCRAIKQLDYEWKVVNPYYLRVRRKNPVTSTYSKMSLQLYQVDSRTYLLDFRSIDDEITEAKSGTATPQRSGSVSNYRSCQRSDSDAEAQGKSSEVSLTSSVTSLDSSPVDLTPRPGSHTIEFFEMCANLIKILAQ
T2 sequence (Q9Y478 whole entry partner): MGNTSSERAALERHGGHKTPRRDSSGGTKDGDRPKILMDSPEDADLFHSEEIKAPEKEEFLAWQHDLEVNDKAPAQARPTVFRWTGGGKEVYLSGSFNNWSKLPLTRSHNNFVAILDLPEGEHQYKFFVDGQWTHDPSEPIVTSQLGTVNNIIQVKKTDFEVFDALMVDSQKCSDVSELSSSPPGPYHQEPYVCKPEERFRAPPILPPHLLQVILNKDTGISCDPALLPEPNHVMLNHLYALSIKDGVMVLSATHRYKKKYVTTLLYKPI
T2 sequence (P54619 whole entry partner): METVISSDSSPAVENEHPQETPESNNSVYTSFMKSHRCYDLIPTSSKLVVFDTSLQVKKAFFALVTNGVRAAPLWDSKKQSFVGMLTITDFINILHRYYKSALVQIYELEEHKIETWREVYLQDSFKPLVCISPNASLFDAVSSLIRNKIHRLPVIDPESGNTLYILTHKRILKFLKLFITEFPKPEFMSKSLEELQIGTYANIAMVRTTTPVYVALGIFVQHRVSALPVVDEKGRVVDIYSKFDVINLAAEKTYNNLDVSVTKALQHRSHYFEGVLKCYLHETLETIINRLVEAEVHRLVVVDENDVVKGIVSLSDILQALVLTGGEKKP
Nature of the data set: Kinase selectivity panel. Conditions: read-out: Inhibition(%) @ 1 µM RK-019. The data set is classed as biochemical. The method in brief: as §2

The target of data set [1] is T3, PI3 Kinase (p110b/p85a)(h) (Homo sapiens, UniProt P42338).
T3 construct: purchased Eurofins Discovery Services (KinaseProfiler)
T3 sequence (P42338 whole entry): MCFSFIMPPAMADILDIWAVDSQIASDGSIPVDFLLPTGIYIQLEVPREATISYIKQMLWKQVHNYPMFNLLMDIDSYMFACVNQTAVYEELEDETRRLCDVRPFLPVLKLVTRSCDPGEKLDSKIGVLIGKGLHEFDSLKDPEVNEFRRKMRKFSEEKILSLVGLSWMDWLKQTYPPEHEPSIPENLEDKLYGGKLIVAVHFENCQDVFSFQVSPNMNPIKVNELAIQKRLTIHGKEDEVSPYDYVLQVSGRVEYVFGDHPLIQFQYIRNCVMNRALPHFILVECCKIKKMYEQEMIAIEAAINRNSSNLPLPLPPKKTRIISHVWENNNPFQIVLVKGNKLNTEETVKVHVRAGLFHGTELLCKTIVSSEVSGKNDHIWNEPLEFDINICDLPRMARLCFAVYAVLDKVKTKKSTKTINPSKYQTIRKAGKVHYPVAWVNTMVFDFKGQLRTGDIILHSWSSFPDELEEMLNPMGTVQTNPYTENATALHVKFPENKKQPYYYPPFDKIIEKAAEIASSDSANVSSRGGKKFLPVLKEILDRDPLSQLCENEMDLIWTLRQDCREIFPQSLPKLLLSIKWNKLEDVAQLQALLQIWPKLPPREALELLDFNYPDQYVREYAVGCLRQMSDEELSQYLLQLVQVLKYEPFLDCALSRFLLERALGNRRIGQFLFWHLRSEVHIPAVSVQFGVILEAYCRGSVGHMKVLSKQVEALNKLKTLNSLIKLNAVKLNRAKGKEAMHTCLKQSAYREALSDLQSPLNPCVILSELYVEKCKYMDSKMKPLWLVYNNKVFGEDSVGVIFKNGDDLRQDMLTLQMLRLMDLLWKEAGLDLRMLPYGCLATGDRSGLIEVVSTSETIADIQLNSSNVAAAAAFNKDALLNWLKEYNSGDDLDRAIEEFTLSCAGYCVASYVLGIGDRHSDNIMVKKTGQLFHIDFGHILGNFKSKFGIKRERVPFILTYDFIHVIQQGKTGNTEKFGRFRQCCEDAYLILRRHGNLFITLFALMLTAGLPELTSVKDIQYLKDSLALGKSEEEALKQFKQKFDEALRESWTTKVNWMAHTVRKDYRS
T3 sequence (P27986 whole entry partner): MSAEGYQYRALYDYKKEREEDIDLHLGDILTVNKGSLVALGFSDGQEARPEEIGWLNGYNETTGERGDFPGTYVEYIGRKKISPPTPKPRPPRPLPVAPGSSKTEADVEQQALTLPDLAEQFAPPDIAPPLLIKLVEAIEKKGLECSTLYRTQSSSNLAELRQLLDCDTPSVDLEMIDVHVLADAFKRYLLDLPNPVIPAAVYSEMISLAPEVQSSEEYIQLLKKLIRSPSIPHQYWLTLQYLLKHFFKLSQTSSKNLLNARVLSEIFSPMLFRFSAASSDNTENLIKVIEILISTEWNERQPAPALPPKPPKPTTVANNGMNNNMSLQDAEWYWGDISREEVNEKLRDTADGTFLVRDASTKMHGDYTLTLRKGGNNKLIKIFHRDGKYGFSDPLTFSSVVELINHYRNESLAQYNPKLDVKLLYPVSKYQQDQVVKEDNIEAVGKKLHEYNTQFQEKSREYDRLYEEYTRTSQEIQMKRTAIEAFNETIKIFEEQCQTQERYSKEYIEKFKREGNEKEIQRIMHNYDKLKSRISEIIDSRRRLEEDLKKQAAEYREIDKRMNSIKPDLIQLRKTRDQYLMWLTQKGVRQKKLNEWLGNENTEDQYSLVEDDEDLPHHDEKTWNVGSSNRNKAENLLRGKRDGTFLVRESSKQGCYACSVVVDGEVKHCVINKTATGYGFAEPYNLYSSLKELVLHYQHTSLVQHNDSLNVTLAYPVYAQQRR
The experiment in a line: Kinase selectivity panel. Format: biochemical. The following applies: read-out: Inhibition(%) @ 1 µM RK-019. An outline of the steps: as §2

Another data set deals with T4, VRK2(h) (Homo sapiens, UniProt Q86Y07).
T4 construct: purchased Eurofins Discovery Services (KinaseProfiler)
T4 sequence (Q86Y07 whole entry): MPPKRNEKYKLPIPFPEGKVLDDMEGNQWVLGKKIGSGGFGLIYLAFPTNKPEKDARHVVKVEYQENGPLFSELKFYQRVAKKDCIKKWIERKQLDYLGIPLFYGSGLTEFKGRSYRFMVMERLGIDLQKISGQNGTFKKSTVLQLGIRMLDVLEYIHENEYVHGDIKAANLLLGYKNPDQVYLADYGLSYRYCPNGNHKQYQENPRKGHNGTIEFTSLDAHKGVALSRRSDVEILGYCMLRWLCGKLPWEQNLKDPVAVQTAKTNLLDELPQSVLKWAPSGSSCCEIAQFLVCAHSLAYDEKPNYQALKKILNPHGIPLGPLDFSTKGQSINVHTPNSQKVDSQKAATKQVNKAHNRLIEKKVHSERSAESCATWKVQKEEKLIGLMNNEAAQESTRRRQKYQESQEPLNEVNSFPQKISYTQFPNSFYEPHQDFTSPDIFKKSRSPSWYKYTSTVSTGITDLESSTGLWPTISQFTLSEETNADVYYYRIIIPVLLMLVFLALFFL
Nature of the data set: Kinase selectivity panel. Conditions: read-out: Inhibition(%) @ 1 µM RK-019. The data set is classed as biochemical. The method in brief:
as §2

Another data set deals with SNU-16 xenograft. Nature of the data set: Subcutaneous xenograft model. The data set is classed as in vivo, NOD/SCID mice. The procedure: (§3) NOD/SCID mice (6-week-old, weight 18–20 g, Beijing HJF bioscience) were used in this experiment and maintained in a specific-pathogen-free (SPF) condition facility. SNU-16 Cells were resuspended in PBS mixed with Matrigel (1:1) and adjust the density to 1×10^7 per mice (100 μL). The cell suspensions were inoculated subcutaneously on the right flank of the mice. When the mean tumor volume reached approximately 200 mm^3, the mice were divided into four groups (five mice each group): i. Vehicle group, ii. RK-019 15 mg/kg group, iii. RK-019 30 mg/kg group, and iv. RK-019 45 mg/kg group. RK-019 was dissolved in same formula as the in vivo PK study. RK-019 was administrated once per day by oral gavage for 21 days. Tumor volumes were measured three times per week. The tumor volume was measured by a caliper and calculated according to the following formula: Tumor volume=Major axis×Miner axis^2/2.
(§4) At the end of administration, the mice were executed euthanasia, then tumors, blood, and organs were extracted. The complete blood count (CBC), serum phosphorus analysis, and blood biochemical analysis were completed by West China Frontier Pharma Tech (Chengdu, China). The pathological section and IHC stanning was completed by Servicebio (Wuhan, China). The tumor growth inhibition (TGI) values were calculated with the following formula: TGI=(1−Tn−T0/Cn−C0)×100%.
Tn and T0 represent average tumor volume before treatment and that of day n after treatment in the treatment group. Cn and C0 represent average tumor volume before treatment and that of day n after treatment in the vehicle group. In this study, n is 21st day.

The nature of data set [2]: Preliminary toxicity in the xenograft mice model. The data set is classed as in vivo, NOD/SCID mice. The procedure:
as §3, §4

SMILES strings stand for the structures.

With `COc1cc(OC)cc(N(CCN[C@H](C)CO)c2ccc3ncc(-c4cnn(C)c4)c(=O)n3c2)c1` [RK-019, (R)-7-((3,5-dimethoxyphenyl) (2-((1-hydroxypropan-2-yl)amino)ethyl)amino)-3-(1-methyl-1H-pyrazol-4-yl)-4H-pyrido [1,2-a]pyrimidin-4-one], the “live cell numbers, prolonged administration” value is recorded as “inhibited” in the data set on SNU-16 cells and “suppressed” with KATO III cells. Moreover, the activity at 1 µM at PKCθ(h) is 119%; on AMPKα1(h), 107%; in data set [1], 100%; at VRK2(h), 104%. The inhibition of tumour growth (TGI) in the data set with SNU-16 xenograft (15 mg/kg oral once a day, 21 days) came to 34.3%; in the data set with SNU-16 xenograft (30 mg/kg oral once a day, 21 days), 85.9%; with SNU-16 xenograft (45 mg/kg oral once a day, 21 days) it was 83.5%. Moreover, the tumor weight entry in the data set with SNU-16 xenograft (RK-019-treated group vs vehicle group, 21 days) is recorded as “significant decrease”. For the same compound, in the data set on SNU-16 xenograft (after 21 days treatment), the “number of cleaved-caspase 3-positive cells (IHC of tumor tissue)” value is “increased significantly”. The “number of p-FGFR2-positive and Ki67-positive cells (IHC of tumor tissue)” value in the data set with SNU-16 xenograft (after 21 days treatment) was “decreased”. Besides, the body weight change result in data set [2] (during 21 days treatment, 15-45 mg/kg oral) was “no significant body weight change”. Moreover, the hematopoietic toxicity entry in data set [2] (end of 21 days treatment) is reported as “absent”. Moreover, the “pathological changes in harvested organs (H&E)” value in data set [2] (end of 21 days treatment) is “no pathological changes”.

A word on the TGI: it is how far tumour growth fell short of that in controls. Read a high TGI as much slowing of growth.

For the origin of these results see publication PMC9532703, “A novel small molecule RK-019 inhibits FGFR2-amplification gastric cancer cell proliferation and induces apoptosis in vitro and in vivo” (Frontiers in Pharmacology, 2022).
